{"source": "patent US10286038B2", "about": "“Lysosome membrane protein 2 (LIMP-2) based peptides and related uses” (Northwestern University, priority 2016, dated 2019)", "key": {"[1]": {"target": "T1, recombinant GC (Cerezyme) (Homo sapiens, UniProt P04062, R534H)", "T1 construct": "purchased Genzyme Therapeutics, Boston, USA", "T1 sequence (P04062 40-536 R534H)": "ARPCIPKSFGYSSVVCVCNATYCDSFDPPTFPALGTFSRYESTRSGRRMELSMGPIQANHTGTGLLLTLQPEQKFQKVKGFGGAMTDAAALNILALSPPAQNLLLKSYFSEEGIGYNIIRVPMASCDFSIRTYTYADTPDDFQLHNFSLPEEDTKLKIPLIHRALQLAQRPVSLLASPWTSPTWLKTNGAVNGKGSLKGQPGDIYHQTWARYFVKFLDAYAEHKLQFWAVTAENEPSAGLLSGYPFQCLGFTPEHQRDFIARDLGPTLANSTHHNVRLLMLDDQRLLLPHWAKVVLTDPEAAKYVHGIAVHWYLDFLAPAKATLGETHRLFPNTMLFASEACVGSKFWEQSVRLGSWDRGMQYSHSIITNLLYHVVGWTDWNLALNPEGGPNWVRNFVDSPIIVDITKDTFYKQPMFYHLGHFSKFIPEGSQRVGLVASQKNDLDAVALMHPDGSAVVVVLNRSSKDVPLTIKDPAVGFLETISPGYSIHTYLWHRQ", "experiment": "peptide pulldown of recombinant GC", "format": "binding", "conditions": "biotinylated peptide, tenfold molar amount, neutral pH, streptavidin beads", "protocol": "Expression plasmids of LIMP-2 and human GC constructs were generated as described previously (1). For Western blotting nitrocellulose or PVDF membranes were used. EndoH/PNGaseF digests were performed according to manufacturer's instructions (New England Biolabs, Ipswich, USA). For co-immunoprecipitation experiments magnetic agarose G beads (Thermo Fisher Scientific, Waltham, USA) were utilized. Immunofluorescence studies were performed in cells as previously described (1, 3). Cellular co-localization of two proteins was determined by the Pearson's Index (35). Enzyme activity assays of cell lysates or recombinant protein were measured at acid pH using absorbent and fluorescent artificial substrates. For peptide studies, peptides were N-terminally tagged with biotin. If not stated otherwise, recombinant enzyme was incubated with a tenfold higher molarity of peptides. Conditions for pulldown experiments were kept at neutral pH. Protein modelling, molecular analyses, graphics and animations were performed with the UCSF Chimera package.\nAll peptides were purchased from jpt Peptide Technologies (Berlin, GER). […] The concentration of the peptides as well as the recombinant proteins was determined spectroscopically (Nanodrop 2000c; Thermo Fisher Scientific, Waltham, USA). […]"}, "recombinant GC": {"target": "T2, recombinant GC (Homo sapiens, UniProt P04062, R534H)", "T2 construct": "purchased Genzyme Therapeutics, Boston, USA", "T2 sequence (P04062 40-536 R534H)": "T1 sequence (P04062 40-536 R534H)", "experiment": "stabilization assay of recombinant GC at 37° C.", "format": "biochemical", "conditions": "recombinant GC incubated with peptide at 37° C.", "protocol": "Proteins were visualized by coomassie staining (CBB). […] See also FIG. 6.\nTo address the functional impact of the observed interaction between the helix 5 peptide and recombinant GC, we measured GC activity in the presence of a one- to tenfold molar excess of the helix 5 peptide. […] No effect on enzymatic activity after incubation with the helix 5 peptide or the LIMP-2 ectodomain could be found for recombinant α-mannosidase (LAMAN) further emphasizing the specificity of the helix 5 peptide on GC activity (FIG. 6E). […] To analyze if the increase in GC activity is due to stabilization of the enzyme, recombinant GC was incubated with the helix 5 and the control peptide at 37° C. and the activity of GC was measured at regular intervals (FIG. 3F)."}}}
{"substance": "Biotin-Ttds-LREIIEAMLKAYQQKLFVTHTVDE [helix 5 peptide]", "values": [{"measurement": "co-precipitation of recombinant GC", "setting": "[1]", "value": "specifically co-precipitated"}, {"measurement": "GC enzymatic activity remaining at 72 hours", "setting": "recombinant GC", "value": "still displayed significant enzymatic activity"}]}
